Laboratory results as given in ChEMBL document CHEMBL1201862, “PubChem BioAssay data set” (2004).
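The compound was tested at five concentrations on cells cultured in 96-well plates, with a 48-hour exposure period. At the GI50, growth is halved.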 Calls of active or inactive are those of the source. No stated cut-off is given here; in the data, active = GI50 up to about 1.1 µM and inactive = higher.

Key:
Assay in all cases: NCI tumour cell line growth inhibition, 48 h
RXF 393 = system: RXF 393
A498 = system: A498
UACC-257 = system: UACC-257
OVCAR-5 = system: OVCAR-5
HCT-116 = system: HCT-116
HCT-15 = system: HCT-15
CCRF-CEM = system: CCRF-CEM
OVCAR-3 = system: OVCAR-3
LOX IMVI = system: LOX IMVI
HT-29 = system: HT-29
RPMI-8226 = system: RPMI-8226
PC-3 = system: PC-3
ACHN = system: ACHN
SK-MEL-2 = system: SK-MEL-2
EKVX = system: EKVX
NCI-H522 = system: NCI-H522
HL-60 = system: HL-60
IGROV-1 = system: IGROV-1
KM12 = system: KM12
SNB-75 = system: SNB-75

| Structure (SMILES) | GI50 (RXF 393) | GI50 (A498) | GI50 (UACC-257) | GI50 (OVCAR-5) | GI50 (HCT-116) | GI50 (HCT-15) | GI50 (CCRF-CEM) | GI50 (OVCAR-3) | GI50 (LOX IMVI) | GI50 (HT-29) | GI50 (RPMI-8226) | GI50 (PC-3) | GI50 (ACHN) | GI50 (SK-MEL-2) | GI50 (EKVX) | GI50 (NCI-H522) | GI50 (HL-60) | GI50 (IGROV-1) | GI50 (KM12) | GI50 (SNB-75) |
| --- | --- | --- | --- | --- | --- | --- | --- | --- | --- | --- | --- | --- | --- | --- | --- | --- | --- | --- | --- | --- |
| O=C(O)c1cc2ccccc2c(Cc2c(O)c(C(=O)O)cc3ccccc23)c1O [PAMOIC ACID] | > 100 µM (inactive) | > 100 µM (inactive) | > 100 µM (inactive) | > 100 µM (inactive) | > 100 µM (inactive) | > 100 µM | > 100 µM (inactive) | > 100 µM (inactive) | > 100 µM (inactive) | > 100 µM (inactive) | > 100 µM (inactive) | > 100 µM (inactive) | > 100 µM (inactive) | > 100 µM (inactive) | > 100 µM (inactive) | > 100 µM (inactive) | > 100 µM (inactive) | > 100 µM (inactive) | > 100 µM (inactive) | – |
| COc1ccc(/C=C/c2ccnc3ccccc23)cc1OC | 13.1 µM (inactive) | 11.5 µM (inactive) | 21.2 µM (inactive) | 12.9 µM (inactive) | 12.6 µM (inactive) | 15.2 µM | 13.2 µM (inactive) | 12.5 µM (inactive) | 10 µM (inactive) | 12.4 µM (inactive) | 28.1 µM (inactive) | 15.8 µM (inactive) | 24.2 µM (inactive) | 19.4 µM (inactive) | 14.6 µM (inactive) | 5.65 µM (inactive) | 11.3 µM (inactive) | 15.5 µM (inactive) | 14.7 µM (inactive) | – |
| O=C(CNC(c1ccccc1)(c1ccccc1)c1ccccc1)NC1CCCCC1NC(=O)CNC(c1ccccc1)(c1ccccc1)c1ccccc1 (stereo unspecified) | – | > 100 µM (inactive) | > 100 µM (inactive) | > 100 µM (inactive) | > 100 µM (inactive) | > 100 µM | > 100 µM (inactive) | > 100 µM (inactive) | > 100 µM (inactive) | > 100 µM (inactive) | > 100 µM (inactive) | > 100 µM (inactive) | > 100 µM (inactive) | > 100 µM (inactive) | 2.99 µM (inactive) | > 100 µM (inactive) | > 100 µM (inactive) | > 100 µM (inactive) | > 100 µM (inactive) | – |
| CC1(C)CC(=O)C2=C(C1)NC1=C(C(=O)CC(C)(C)C1)C2c1ccc([N+](=O)[O-])cc1 | > 100 µM (inactive) | > 100 µM (inactive) | > 100 µM (inactive) | > 100 µM (inactive) | > 100 µM (inactive) | > 100 µM | – | > 100 µM (inactive) | > 100 µM (inactive) | > 100 µM (inactive) | > 100 µM (inactive) | > 100 µM (inactive) | > 100 µM (inactive) | > 100 µM (inactive) | > 100 µM (inactive) | > 100 µM (inactive) | > 100 µM (inactive) | > 100 µM (inactive) | > 100 µM (inactive) | 16.7 µM (inactive) |
| COc1cccc2c1CCc1cc3c(N)nc(N)nc3nc1-2 | 3.02 µM (inactive) | 9.27 µM (inactive) | 5.73 µM (inactive) | 6.92 µM (inactive) | 2.55 µM (inactive) | 5.21 µM | 2.55 µM (inactive) | 7.26 µM (inactive) | 0.34 µM (active) | 2.41 µM (inactive) | 2.12 µM (inactive) | 5.38 µM (inactive) | 5.75 µM (inactive) | 13.3 µM (inactive) | 2.12 µM (inactive) | 5.18 µM (inactive) | – | 5.86 µM (inactive) | 5.47 µM (inactive) | 5.98 µM (inactive) |
| COc1c(Br)cc(/C=C(\C#N)c2ccccn2)cc1Br | 22.8 µM (inactive) | < 0.01 µM (active) | > 100 µM (inactive) | > 100 µM (inactive) | 30.3 µM (inactive) | 84.9 µM | > 100 µM (inactive) | > 100 µM (inactive) | – | > 100 µM (inactive) | > 100 µM (inactive) | > 100 µM (inactive) | > 100 µM (inactive) | 13.8 µM (inactive) | 1.26 µM (inactive) | > 100 µM (inactive) | > 100 µM (inactive) | 51.4 µM (inactive) | > 100 µM (inactive) | 0.891 µM (active) |
| Cc1coc2c1CC1OC1(C)CCC1OC1(C)C2 (stereo unspecified) | – | > 100 µM (inactive) | > 100 µM (inactive) | > 100 µM (inactive) | > 100 µM (inactive) | > 100 µM | > 100 µM (inactive) | > 100 µM (inactive) | > 100 µM (inactive) | – | > 100 µM (inactive) | > 100 µM (inactive) | > 100 µM (inactive) | > 100 µM (inactive) | > 100 µM (inactive) | > 100 µM (inactive) | > 100 µM (inactive) | > 100 µM (inactive) | > 100 µM (inactive) | > 100 µM (inactive) |
